Test results taken from US9302999B2, “Substituted triazoles as herbicides” (E. I. DU PONT DE NEMOURS AND COMPANY, priority 2012, dated 2016).
Where two headings read alike, the source gives them in different places.

Key:
Assay type in all cases: in vivo
[1] = system: sedge, umbrella (small-flower umbrella sedge, Cyperus difformis); assay: Test C flooded paddy test: sedge, umbrella; conditions: scale 0 to 100 (0 no effect, 100 complete control); for pest or weed control at 62 g/ha / pest or weed control at 250 g/ha / pest or weed control at 125 g/ha: Cyperus difformis, read-out: Plant response rating, Sedge, Umbrella
Outline: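 Visual ratings from 0 (no effect) to 100 (complete control), made against untreated controls 13 to 15 days after treatment, express plant response. Compounds went directly into paddy water over 2-leaf stage plants in pots flooded to 3 cm.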

[2] = system: chickweed (common chickweed, Stellaria media); assay: Test D pre-/postemergence: chickweed
Description: (§1) Seeds of plant species selected from bluegrass (annual bluegrass, Poa annua), blackgrass (Alopecurus myosuroides), canarygrass (Phalaris minor), chickweed (common chickweed, Stellaria media), galium (catchweed bedstraw, Galium aparine), bromegrass, downy (downy bromegrass, Bromus tectorum), field poppy (Papaver rhoeas), field violet (Viola arvensis), foxtail, green (green foxtail, Setaria viridis), deadnettle (henbit deadnettle, Lamium amplexicaule), ryegrass, Italian (Italian ryegrass, Lolium multiflorum), kochia (Kochia scoparia), lambsquarters (Chenopodium album), oilseed rape (Brassica napus), pigweed (Amaranthus retroflexus), Russian thistle (Salsola iberica), chamomile (scentless chamomile, Matricaria inodora), speedwell (bird's-eye speedwell, Veronica persica), barley, spring (spring barley, Hordeum vulgare), wheat, spring (spring wheat, Triticum aestivum), buckwheat, wild (wild buckwheat, Polygonum convolvulus), mustard, wild (wild mustard, Sinapis arvensis), oat, wild (wild oat, Avena fatua), radish, wild (wild radish, Raphanus raphanistrum), windgrass (Apera spica-venti), barley, winter (winter barley, Hordeum vulgare), and wheat, winter (winter wheat, Triticum aestivum) were planted into a silt loam soil and treated preemergence with test chemicals formulated in a non-phytotoxic solvent mixture which included a surfactant. At the same time, these same crop and weed species were planted in pots containing the planting medium comprising spaghnum peat moss, vermiculite, wetting agent and starter nutrients and treated with postemergence applications of the test chemicals formulated in the same manner. Plants ranged in height from 2 to 18 cm (1- to 4-leaf stage).
(§2) Treated plants and controls were maintained in a controlled growth environment for 14 to 21 days after which time all species were compared to controls and visually evaluated. Plant response ratings, summarized in Table D, are based on a scale of 0 to 100 where 0 is no effect and 100 is complete control. A dash (-) response means no test result.

[3] = system: chamomile (scentless chamomile, Matricaria inodora); assay: Test D pre-/postemergence: chamomile; conditions: Postemergence; for Plant response rating, Chamomile: 16 g ai/ha, scale 0 to 100
Description: as §1, §2

[4] = system: canarygrass (Phalaris minor); assay: Test D pre-/postemergence: canarygrass
Description: as §1, §2

[5] = system: speedwell (bird's-eye speedwell, Veronica persica); assay: Test D pre-/postemergence: speedwell
Description: as §1, §2

[6] = system: ryegrass, Italian (Italian ryegrass, Lolium multiflorum); assay: Test D pre-/postemergence: ryegrass, Italian
Description: as §1, §2

[7] = Flood (flooded paddy test), 62 g ai/ha, visual rating after 13 to 15 days
[8] = Flood (flooded paddy test), 250 g ai/ha, visual rating after 13 to 15 days
[9] = Postemergence, 31 g ai/ha, scale 0 to 100 (0 no effect, 100 complete control)
[10] = Postemergence, 62 g ai/ha, scale 0 to 100 (0 no effect, 100 complete control)
[11] = Postemergence, 125 g ai/ha, scale 0 to 100, 0 no effect, 100 complete control
[12] = Postemergence, 250 g ai/ha, scale 0 to 100 (0 no effect, 100 complete control)
[13] = Preemergence, 31 g ai/ha, scale 0 to 100, 0 no effect, 100 complete control
[14] = Preemergence, 62 g ai/ha, scale 0 to 100
[15] = Preemergence, 125 g ai/ha, scale 0 to 100
[16] = Preemergence, 250 g ai/ha, scale 0 to 100
[17] = 31 g ai/ha, scale 0 to 100 (0 no effect, 100 complete control)
[18] = 62 g ai/ha, scale 0 to 100 (0 no effect, 100 complete control)
[19] = 125 g ai/ha, scale 0 to 100, 0 no effect, 100 complete control
[20] = 250 g ai/ha, scale 0 to 100 (0 no effect, 100 complete control)
[21] = Postemergence, 16 g ai/ha, scale 0 to 100
[22] = Flood (flooded paddy test), 125 g ai/ha, visual rating after 13 to 15 days

SMILES	pest or weed control at 250 g/ha [1, 8] [%]	Plant response rating: Chickweed [2, 9]	Plant response rating: Chickweed [2, 10]	Plant response rating: Chickweed [2, 11]	Plant response rating: Chickweed [2, 12]	Plant response rating: Chamomile [3, 17]	Plant response rating: Chamomile [3, 18]	Plant response rating: Chamomile [3, 19]	Plant response rating: Chamomile [3, 20]	Plant response rating: Canarygrass [4, 9]	Plant response rating: Canarygrass [4, 10]	Plant response rating: Canarygrass [4, 11]	Plant response rating: Canarygrass [4, 12]	Plant response rating: Speedwell [5, 9]	Plant response rating: Speedwell [5, 10]	Plant response rating: Speedwell [5, 11]	Plant response rating: Speedwell [5, 12]	Plant response rating: Ryegrass, Italian [6, 9]	Plant response rating: Ryegrass, Italian [6, 10]	Plant response rating: Ryegrass, Italian [6, 11]	other results
Cc1nn(-c2ccc(C(F)(F)F)cc2)nc1Oc1csc(C(F)(F)F)c1 [Compound 1, 4-methyl-2-[4-(trifluoromethyl)phenyl]-5-[[5-(trifluoromethyl)-3-thienyl]oxy]-2H-1,2,3-triazole]	0																				pest or weed control at 62 g/ha [1, 7]: 0%
FC(F)(F)COc1nn(-c2ccc(C(F)(F)F)cc2)nc1Cc1ccnc(C(F)(F)F)c1 [Compound 14, 4-[[5-(2,2,2-trifluoroethoxy)-2-[4-(trifluoromethyl)phenyl]-2H-1,2,3-triazol-4-yl]methyl]-2-(trifluoromethyl)pyridine]	75	50	80	90	98	20	60	100	100	25	40	55	80	100	100	100	100	5	20	25	pest or weed control at 62 g/ha [1, 7]: 40%; Plant response rating, Chickweed [2, 13]: 75; Plant response rating, Chickweed [2, 14]: 100; Plant response rating, Chickweed [2, 15]: 100; Plant response rating, Chickweed [2, 16]: 100; Plant response rating, Canarygrass [4, 13]: 10; Plant response rating, Canarygrass [4, 14]: 25; Plant response rating, Canarygrass [4, 15]: 90; Plant response rating, Canarygrass [4, 16]: 98; Plant response rating, Speedwell [5, 13]: 100; Plant response rating, Speedwell [5, 14]: 100; Plant response rating, Speedwell [5, 15]: 100; Plant response rating, Speedwell [5, 16]: 100; Plant response rating: Ryegrass, Italian [6, 12]: 35; Plant response rating, Ryegrass, Italian [6, 13]: 0; Plant response rating, Ryegrass, Italian [6, 14]: 25; Plant response rating, Ryegrass, Italian [6, 15]: 25; Plant response rating, Ryegrass, Italian [6, 16]: 50
COc1nn(-c2ccc(C(F)(F)F)cc2)nc1Cc1ccnc(C(F)(F)F)c1 [Compound 15, 4-[[5-methoxy-2-[4-(trifluoromethyl)phenyl]-2H-1,2,3-triazol-4-yl]methyl]-2-(trifluoromethyl)pyridine]	80	100	100	100	100	0	0	25	100	35	40	50	80	100	100	100	100	5	5	10	pest or weed control at 62 g/ha [1, 7]: 75%; Plant response rating, Chickweed [2, 21]: 40; Plant response rating, Chickweed [2, 13]: 100; Plant response rating, Chickweed [2, 14]: 100; Plant response rating, Chickweed [2, 15]: 100; Plant response rating, Chickweed [2, 16]: 100; Plant response rating, Chamomile [3]: 0; Plant response rating, Canarygrass [4, 21]: 25; Plant response rating, Canarygrass [4, 13]: 25; Plant response rating, Canarygrass [4, 14]: 80; Plant response rating, Canarygrass [4, 15]: 90; Plant response rating, Canarygrass [4, 16]: 100; Plant response rating, Speedwell [5, 21]: 100; Plant response rating: Ryegrass, Italian [6, 12]: 20; Plant response rating, Ryegrass, Italian [6, 21]: 0; Plant response rating, Ryegrass, Italian [6, 13]: 0; Plant response rating, Ryegrass, Italian [6, 14]: 5; Plant response rating, Ryegrass, Italian [6, 15]: 25; Plant response rating, Ryegrass, Italian [6, 16]: 70
Cc1nn(-c2ccc(C(F)(F)F)cn2)nc1Oc1ccnc(C(F)(F)F)c1 [Compound 23]		10	15	30	90	0	0	0	5	15	20	25	30	10	20	50	60	10	10	10	Plant response rating, Sedge, Umbrella [1, 7]: 75; Plant response rating, Sedge, Umbrella [1, 22]: 80; Plant response rating, Sedge, Umbrella [1, 8]: 90; Plant response rating, Sedge, Umbrella ([1]; Flood, 31 g ai/ha): 60; Plant response rating, Chickweed [2, 21]: 5; Plant response rating, Chamomile [3]: 0; Plant response rating, Canarygrass [4, 21]: 10; Plant response rating, Speedwell [5, 21]: 5; Plant response rating: Ryegrass, Italian [6, 12]: 15; Plant response rating, Ryegrass, Italian [6, 21]: 5
COCc1nn(-c2ccc(C(F)(F)F)cc2)nc1Oc1cccc(OC(F)(F)F)c1 [Compound 115, 4-(methoxymethyl)-5-[3-(trifluoromethoxy)phenoxy]-2-[4-(trifluoromethyl)phenyl]-2H-1,2,3-triazole]	80																				pest or weed control at 125 g/ha [1, 22]: 75%; pest or weed control at 62 g/ha ([1]; Flood, 62 g ai/ha): 70%
FCc1nn(-c2ccc(C(F)(F)F)cc2)nc1Oc1cccc(OC(F)(F)F)c1 [Compound 116, 4-(fluoromethyl)-5-[3-(trifluoromethoxy)phenoxy]-2-[4-(trifluoromethyl)phenyl]-2H-1,2,3-triazole]	85																				pest or weed control at 125 g/ha [1, 22]: 75%; pest or weed control at 62 g/ha ([1]; Flood, 62 g ai/ha): 60%
COc1nn(-c2ccc(C(F)(F)F)cc2)nc1Cc1ccnc(C(F)F)c1 [Compound 138]		60	85	95	100	10	30	60	80	25	30	50	80	80	90	98	100	25	35	40	Plant response rating, Chickweed [2, 21]: 60; Plant response rating, Chamomile [3]: 0; Plant response rating, Canarygrass [4, 21]: 10; Plant response rating, Speedwell [5, 21]: 80; Plant response rating: Ryegrass, Italian [6, 12]: 50; Plant response rating, Ryegrass, Italian [6, 21]: 10
